# Laboratory results taken from publication PMC3108469 (Journal of Medicinal Chemistry, 2011).
# Settings: Sprague–Dawley rats
Structure (SMILES),Vz,exposure,oral bioavailability (%F)
"CN(C)[C@@H]1C(O)=C(C(N)=O)C(=O)[C@@]2(O)C(O)=C3C(=O)c4c(c(F)c5ccc(CN6CCC6)cc5c4O)C[C@H]3C[C@@H]12 [19c-5, (4S,4aS,5aR,14aS)-10-(Azetidin-1-ylmethyl)-4-(dimethylamino)-7-fluoro-3,12,14,14a-tetrahydroxy-1,13-dioxo-1,4,4a,5,5a,6,13,14a-octahydropentacene-2-carboxamide]",exceptionally large,extremely poor exposure,–
"CN(C)c1cc(NC(=O)CNC(C)(C)C)c(O)c2c1C[C@H]1C[C@H]3[C@H](N(C)C)C(O)=C(C(N)=O)C(=O)[C@@]3(O)C(O)=C1C2=O [tigecycline, reference compound]",–,–,almost no oral bioavailability
